Laboratory results: patent publication US7829665B2 (priority 2005, dated 2010)

These molecules were tested against T1, full-length NS3/NS4A-2 (HCV NS3 protease) (Hepatitis C virus genotype 1a, UniProt P27958) (assay: NS3-NS4 protease assay / NS3 inhibition assay (RETS1 substrate, fluorescence kinetic read)). Conditions: not given.
T1 construct: Recombinant E. coli or Baculovirus full-length NS3 was diluted to 3.33 μM with assay buffer; made in house; host or cells: E. coli or baculovirus (BV) expression system
Format: biochemical
Procedure: NS3 complex formation with NS4A-2.
Recombinant E. coli or Baculovirus full-length NS3 was diluted to 3.33 μM with assay buffer and transferred material to an eppendorf tube and place in water bath in 4° C. refrigerator. The appropriate amount of NS4A-2 to 8.3 mM in assay buffer was added to equal the volume of NS3 in step 2.1.1 (conversion factor—3.8 mg/272 μL assay buffer). The material was transferred to an eppendorf tube and place in water bath in 4° C. refrigerator.
After equilibration to 4° C., equal volumes of NS3 and NS4A-2 solutions were combined in an eppendorf tube, mix gently with a manual pipettor, and incubate mixture for 15 minutes in the 4° C. water bath. Final concentrations in the mixture are 1.67 μM NS3, 4.15 mM NS4A-2 (2485-fold molar excess NS4A-2).
After 15 minutes at 4° C., the NS3/NS4A-2 eppendorf tube was removed and place it in a room temperature water bath for 10 minutes. NS3/NS4A-2 was alliquoted at appropriate volumes and store at −80° C. (E. coli NS3 run at 2 nM in assay, aliquot at 25 μL. BV NS3 run at 3 nM in assay, aliquot at 30 μL).
Sample compounds were dissolved to 10 mM in DMSO then diluted to 2.5 mM (1:4) in DMSO. Typically, compounds were added to an assay plate at 2.5 mM concentration, yielding upon dilution a starting concentration of 50 microM in the assay inhibition curve. Compounds were serial diluted in assay buffer to provide test solutions at lower concentrations.
The E. coli. NS3/NS4A-2 was diluted to 4 nM NS3 (1:417.5 of 1.67 μM stock−18 μL 1.67 μM stock+7497 μL assay buffer). The BV NS3/NS4A-2 was diluted to 6 nM NS3 (1:278.3 of 1.67 μM stock−24 μL 1.67 μM stock+6655 μL assay buffer). Using the manual multichannel pipettor, careful not to introduce bubbles into the plate, add 50 μL assay buffer to wells A01-H01 of a black Costar 96-well polypropylene storage plate.
Using the manual multichannel pipettor, careful not to introduce bubbles into the plate, add 50 μL of diluted NS3/NS4A-2 from step 2.2.6 to wells A02-H12 of plate in step 2.2.7. Using the manual multichannel pipettor, careful not to introduce bubbles into the plate, transfer 25 μL of the wells in drug dilution plate in step 2.2.5 to corresponding wells in assay plate in step 2.2.8. Change tips on multichannel pipettor for each row of compounds transferred. Using the manual multichannel pipettor, careful not to introduce bubbles into the plate, mix the wells from the assay plate in step 2.2.9 by aspirating and dispensing 35 μL of the 75 μL in each well five times. Change tips on multichannel pipettor for each row of wells mixed. Cover plate with a polystyrene plate lid and pre-incubate the plate from step 2.2.10 containing NS3 protease and sample compounds 10 minutes at room temperature. While plate from step 2.2.11 is pre-incubating, dilute RETS1 substrate in a 15 mL polypropylene centrifuge tube. Dilute RETS1 substrate to 8 μM (1:80.75 of 646 μM stock−65 μL 646 μM stock+5184 μL assay buffer).
After the plate in step is done pre-incubating, and using the manual multichannel, add 25 μL of substrate to all wells on the plate. Quickly mix the plate as in step 2.2.10, mixing 65 μL of the 100 μL in the wells.
Read the plate in kinetic mode on the Molecular Devices SpectraMax Gemini XS plate reader. Reader settings: Read time: 30 minutes, Interval: 36 seconds, Reads: 51, Excitation λ: 335 nm, Emission λ: 495 nm, cutoff: 475 nm, Automix: off, Calibrate: once, PMT: high, Reads/well: 6, Vmax pts: 21 or 28/51 depending on length of linearity of reaction
IC50 s are determined using a four parameter curve fit equation, and converted to Ki's using the following Km's: • Full-length E. coli NS3—2.03 μM • Full-length BV NS3—1.74 μM where Ki=IC50/(1+[S]/Km)) • Quantitation by ELISA of the selectable marker protein, Neomycin phosphotransferase II (NPTII) in the HCV Sub-Genomic Replicon, GS4.3

T1 sequence (P27958 1027-1657): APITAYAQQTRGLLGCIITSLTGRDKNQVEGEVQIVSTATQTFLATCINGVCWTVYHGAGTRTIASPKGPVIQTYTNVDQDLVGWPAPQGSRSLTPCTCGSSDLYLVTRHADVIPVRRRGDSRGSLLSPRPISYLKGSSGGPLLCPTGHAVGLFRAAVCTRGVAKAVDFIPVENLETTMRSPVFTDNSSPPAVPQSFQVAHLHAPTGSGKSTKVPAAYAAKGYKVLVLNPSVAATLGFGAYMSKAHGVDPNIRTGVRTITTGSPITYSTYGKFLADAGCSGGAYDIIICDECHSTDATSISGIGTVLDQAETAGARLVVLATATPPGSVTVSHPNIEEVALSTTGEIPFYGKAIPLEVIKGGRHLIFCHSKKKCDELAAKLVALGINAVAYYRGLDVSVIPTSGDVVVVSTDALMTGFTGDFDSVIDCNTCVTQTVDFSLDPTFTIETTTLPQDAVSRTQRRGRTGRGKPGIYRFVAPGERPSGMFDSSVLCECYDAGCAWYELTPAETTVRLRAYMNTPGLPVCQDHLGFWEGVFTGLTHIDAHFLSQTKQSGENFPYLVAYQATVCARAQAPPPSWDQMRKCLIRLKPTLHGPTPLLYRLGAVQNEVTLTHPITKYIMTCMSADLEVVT

SMILES	IC50 [µM]
CC(C)(C)OC(=O)N[C@H]1COCCC/C=C\[C@@H]2C[C@@]2(C(=O)NS(=O)(=O)C2CC2)NC(=O)[C@@H]2C[C@@H](OC(=O)N3Cc4cccc(Cl)c4C3)CN2C1=O [Compound 1025]	< 0.1

Same assay, conditions: Table 22; read-out: NS3-NS4 IC50

SMILES	IC50 [µM]
CC(C)(C)OC(=O)N[C@H]1CCCCC/C=C\[C@@H]2C[C@@]2(C(=O)NCC#N)NC(=O)[C@@H]2CCCN2C1=O [Compound 2322]	< 0.1
Cc1ccc(NC(=O)[C@@]23C[C@H]2/C=C\CCCCC[C@H](NC(=O)OC(C)(C)C)C(=O)N2CCC[C@H]2C(=O)N3)cc1 [Compound 2316]	< 1

Same assay, conditions: recombinant E. coli or Baculovirus full-length NS3 with NS4A-2; read-out: NS3-NS4 IC50

SMILES	IC50 [µM]
CNS(=O)(=O)NC(=O)[C@@]12C[C@H]1/C=C\CCCCC[C@H](NC(=O)OC(C)(C)C)C(=O)N1CCC[C@H]1C(=O)N2 [Compound 2213]	< 10
CN(Cc1ccccc1)S(=O)(=O)NC(=O)[C@@]12C[C@H]1/C=C\CCCCC[C@H](NC(=O)OC(C)(C)C)C(=O)N1CCC[C@H]1C(=O)N2 [Compound 417]	< 10
CC(C)(C)OC(=O)N[C@H]1CCCCC/C=C\[C@@H]2C[C@@]2(C(=O)NS(N)(=O)=O)NC(=O)[C@@H]2CCCN2C1=O [Compound 2203]	< 1
CN(c1ccc(F)cc1)S(=O)(=O)NC(=O)[C@@]12C[C@H]1/C=C\CCCCC[C@H](NC(=O)OC(C)(C)C)C(=O)N1CCC[C@H]1C(=O)N2 [Compound 2229]	< 10
CN(C)S(=O)(=O)NC(=O)[C@@]12C[C@H]1/C=C\CCCCC[C@H](NC(=O)OC(C)(C)C)C(=O)N1CCC[C@H]1C(=O)N2 [Compound 2202]	< 10
CCOC(=O)[C@@]12C[C@H]1/C=C\CCCCC[C@H](NC(=O)OC1CCCC1)C(=O)N1C[C@H](OC(=O)N3Cc4ccc(OCCN5CCOCC5)cc4C3)C[C@H]1C(=O)N2 [Compound 129]	< 10
COc1cccc(S(=O)(=O)NC(=O)[C@@]23C[C@H]2/C=C\CCCCC[C@H](NC(=O)OC(C)(C)C)C(=O)N2CCC[C@H]2C(=O)N3)c1 [Compound 2116]	< 10
COc1cccc(CCNS(=O)(=O)NC(=O)[C@@]23C[C@H]2/C=C\CCCCC[C@H](NC(=O)OC(C)(C)C)C(=O)N2CCC[C@H]2C(=O)N3)c1 [Compound 414]	> 10
COc1ccccc1NS(=O)(=O)NC(=O)[C@@]12C[C@H]1/C=C\CCCCC[C@H](NC(=O)OC(C)(C)C)C(=O)N1CCC[C@H]1C(=O)N2 [Compound 2236]	< 1
CC(C)(C)OC(=O)N[C@H]1CCCCC/C=C\[C@@H]2C[C@@]2(C(=O)NS(=O)(=O)Nc2ccc(Cl)cc2Cl)NC(=O)[C@@H]2CCCN2C1=O [Compound 410]	> 10
CC(C)(C)OC(=O)N[C@H]1CCCCC/C=C\[C@@H]2C[C@@]2(C(=O)NS(=O)(=O)c2ccc(F)cc2)NC(=O)[C@@H]2CCCN2C1=O [Compound 2114]	< 10
CC(C)(C)OC(=O)N[C@H]1CCCCC/C=C\[C@@H]2C[C@@]2(C(=O)NS(=O)(=O)NC2(C#N)CC2)NC(=O)[C@@H]2CCCN2C1=O [Compound 2212]	< 1
CC(C)(C)OC(=O)N[C@H]1CCCCC/C=C\[C@@H]2C[C@@]2(C(=O)NS(=O)(=O)c2cccc(C(F)(F)F)c2)NC(=O)[C@@H]2CCCN2C1=O [Compound 2149]	< 10
Cc1cc(Cl)cc(Cl)c1S(=O)(=O)NC(=O)[C@@]12C[C@H]1/C=C\CCCCC[C@H](NC(=O)OC(C)(C)C)C(=O)N1CCC[C@H]1C(=O)N2 [Compound 2123]	< 1
COc1ccc(CCNS(=O)(=O)NC(=O)[C@@]23C[C@H]2/C=C\CCCCC[C@H](NC(=O)OC(C)(C)C)C(=O)N2CCC[C@H]2C(=O)N3)cc1 [Compound 413]	> 10
Cc1ccc([S@@+]([O-])NC(=O)[C@@]23C[C@H]2/C=C\CCCCC[C@H](NC(=O)OC(C)(C)C)C(=O)N2CCC[C@H]2C(=O)N3)cc1 [Compound 2403]	< 1
CC[C@@H]1C[C@H]2C(=O)N[C@]3(C(=O)O)C[C@H]3/C=C\CCCCC[C@H](NC(=O)OC3CCCC3)C(=O)N2C1 [Compound 313]	< 10

SMILES	IC50 [µM]
CC(C)(C)OC(=O)N[C@H]1CCCCC/C=C\[C@@H]2C[C@@]2(C(=O)NS(=O)(=O)NCCc2ccc(Cl)cc2)NC(=O)[C@@H]2CCCN2C1=O [Compound 403]	< 10
CC(C)(C)OC(=O)N[C@H]1CCCCC/C=C\[C@@H]2C[C@@]2(C(=O)NS(=O)(=O)c2cccs2)NC(=O)[C@@H]2CCCN2C1=O [Compound 2136]	< 10
CC(C)(C)OC(=O)N[C@H]1CCCCC/C=C\[C@@H]2C[C@@]2(C(=O)NS(=O)(=O)NCc2ccccn2)NC(=O)[C@@H]2CCCN2C1=O [Compound 425]	> 10
O=C(N[C@H]1CCCCC/C=C\[C@@H]2C[C@@]2(C(=O)NS(=O)(=O)Nc2ccc(Cl)cc2)NC(=O)[C@@H]2CCCN2C1=O)C1CCC1 [Compound 427]	> 10
CC(C)(C)OC(=O)N[C@H]1CCCCC/C=C\[C@@H]2C[C@@]2(C(=O)NS(=O)(=O)c2cc(Cl)ccc2F)NC(=O)[C@@H]2CCCN2C1=O [Compound 2150]	< 10
CC(C)(C)OC(=O)N[C@H]1CCCCC/C=C\[C@@H]2C[C@@]2(C(=O)NS(=O)(=O)Cc2ccccc2Cl)NC(=O)[C@@H]2CCCN2C1=O [Compound 2117]	< 1
CC(C)(C)OC(=O)N[C@H]1CCCCC/C=C\[C@@H]2C[C@@]2(C(=O)NS(=O)(=O)c2cc(Cl)sc2Cl)NC(=O)[C@@H]2CCCN2C1=O [Compound 2126]	< 10
CC(C)(C)OC(=O)N[C@H]1CCCCC/C=C\[C@@H]2C[C@@]2(C(=O)NS(=O)(=O)Nc2cccnc2)NC(=O)[C@@H]2CCCN2C1=O [Compound 406]	> 10
N[C@H]1CCCCC/C=C\[C@@H]2C[C@@]2(C(=O)NS(=O)(=O)Nc2ccc(Cl)cc2)NC(=O)[C@@H]2C[C@@H](OC(=O)N3Cc4ccccc4C3)CN2C1=O [Compound 203]	< 1
CN1CCC(N(C2CC2)S(=O)(=O)NC(=O)[C@@]23C[C@H]2/C=C\CCCCC[C@H](NC(=O)OC(C)(C)C)C(=O)N2CCC[C@H]2C(=O)N3)CC1 [Compound 2211]	< 1
CC(C)(C)OC(=O)N[C@H]1CCCCC/C=C\[C@@H]2C[C@@]2(C(=O)NS(=O)(=O)Nc2ccc(F)cc2)NC(=O)[C@@H]2CCCN2C1=O [Compound 2237]	< 1
CC(C)(C)OC(=O)N[C@H]1CCCCC/C=C\[C@@H]2C[C@@]2(C(=O)NS(=O)(=O)c2ccc(C#N)cc2)NC(=O)[C@@H]2CCCN2C1=O [Compound 2134]	< 1
CN(C)c1ccc(S(=O)(=O)NC(=O)[C@@]23C[C@H]2/C=C\CCCCC[C@H](NC(=O)OC2CCCC2)C(=O)N2C[C@H](OC(=O)N4CCc5ccccc5C4)C[C@H]2C(=O)N3)cc1 [Compound 183]	< 0.1
CCOc1ccc2sc(S(=O)(=O)NC(=O)[C@@]34C[C@H]3/C=C\CCCCC[C@H](NC(=O)OC(C)(C)C)C(=O)N3CCC[C@H]3C(=O)N4)nc2c1 [Compound 306]	> 10
C[C@H](NS(=O)(=O)NC(=O)[C@@]12C[C@H]1/C=C\CCCCC[C@H](NC(=O)OC(C)(C)C)C(=O)N1CCC[C@H]1C(=O)N2)c1ccccc1 [Compound 416]	< 10
CC(C)(C)OC(=O)N[C@H]1CCCCC/C=C\[C@@H]2C[C@@]2(C(=O)NS(=O)(=O)NCCc2ccccc2)NC(=O)[C@@H]2CCCN2C1=O [Compound 2228]	< 10
CC(C)(C)OC(=O)N[C@H]1CCCCC/C=C\[C@@H]2C[C@@]2(C(=O)NS(=O)(=O)c2cccc(Br)c2)NC(=O)[C@@H]2CCCN2C1=O [Compound 2112]	< 10
